Data as given in patent publication US7794995B2, “Purified PKB Ser 473 kinase and uses thereof” (priority 2002, dated 2010).
“Also recorded” adds a separate entry of the source.

Legend:
[1] = test system: PKB phosphorylation on Thr308 and Ser473; assay: Immunoblotting of plasma membrane fractions for phospho-PKB and total PKB after cell treatment; type: cell-based, human; settings: serum-starved HEK293 cells, immunoblot; for PKB phosphorylation on Thr308 and Ser473: 0.1 microM insulin, pervanadate 0.1 mM, 10 mins
Description: The presence of PKB in each fraction was determined by immunoblotting with an anti-HA antibody (12CA5). In addition, the phosphorylation status of PKB in each of the fractions was assessed by immunoblotting with phospho-specific PKB antibodies after immunoprecipitation with the HA antibody. Briefly, following SDS-PAGE, proteins were transferred onto Immobilon-P membranes (Millipore). Non-specific signals were blocked by incubating the membrane in TBST buffer (50 mM Tris-HCl, pH 7.4, 150 mM NaCl, 0.1% Tween-20) containing 5% skim milk for 1 hour at room temperature. Incubation with antibodies was performed in TBST for phospho-specific antibodies, TBST containing 1% skim milk for polyclonal antibodies and TBST containing 5% skim milk for monoclonal antibodies, at 4° C. overnight. Antibodies specific for PKB phosphorylated on Thr308 are commercially available (Cell Signalling Technologies). Antibodies specific for PKB phosphorylated on Ser473 was produced and purified as previously described (Hill and Hemmings, 2002, Methods Enzymol 345: 448-463). Pan-PKB antibody has been previously described (Jones et al., 1991, Proc Natl Acad Sci USA 88: 4171-4175).
Next, it was examined if membrane-associated Ser473 kinase activity was dependent on PI3-kinase signalling. Serum-starved HEK293 cells were treated with 0.1 microM insulin, the insulin mimetic pervanadate (0.1 mM, 10 mins.), the PI 3-kinase inhibitor LY294002 (50 microM, 30 mins.), or left untreated. PM fractions were assayed for Ser473 kinase activity, and also analyzed by immunoblotting for phospho-PKB and total PKB.

[2] = test system: PKB Ser473 kinase; assay: Ser473 kinase activity (FSY/FAY peptide assay) in subcellular fractions of treated serum-starved HEK293 cells; type: cell-based, human; settings: 0.1 microM insulin, pervanadate 0.1 mM, 10 mins, LY294002 50 microM, 30 mins, versus basal
Description: HEK 293 cells transiently transfected with the PKB constructs were serum starved, stimulated or not with 0.1 mM pervanadate for 10 min at 37° C., and subcellular fractions were generated. Briefly, HEK 293 cells were washed once in ice-cold phosphate-buffered saline, and scraped in ice-cold fractionation buffer containing 20 mM HEPES-NaOH, pH 7.4, 250 mM sucrose, phosphatase inhibitors (10 mM sodium fluoride, 1 mM sodium pyrophosphate, 0.1 mM sodium orthovanadate, 2 μM microcystin LR [Alexis]), and protease inhibitors (1 mM PMSF and 1 mM benzamidine). After homogenization either by 10 passes through a 26-gauge needle, or by using a Kinematica homogenizer (10 strokes on speed 2 followed by 30 strokes on speed 10), subcellular fractions were prepared as previously described (Hill and Hemmings, 2002, Methods Enzymol 345: 448-463). The plasma membrane pellets were resuspended in 50 mM Tris-HCl (pH7.4) containing protease and phosphatase inhibitors as described above. Protein concentration of the subcellular fractions was determined by the Bradford method (Bio-Rad), using bovine serum albumin as standard. […]
Next, it was examined if membrane-associated Ser473 kinase activity was dependent on PI3-kinase signalling. […] PM fractions were assayed for Ser473 kinase activity, and also analyzed by immunoblotting for phospho-PKB and total PKB.

[3] = test system: PKB Ser473 kinase; settings: second kinase activity, taken to be the PKB Ser473 kinase; 0-100 microM tested
[4] = molecular target: T1, PDK1 (Homo sapiens, UniProt O15530); settings: literature: Hill et al. 2001; cited from earlier work
T1 sequence (O15530 1-556): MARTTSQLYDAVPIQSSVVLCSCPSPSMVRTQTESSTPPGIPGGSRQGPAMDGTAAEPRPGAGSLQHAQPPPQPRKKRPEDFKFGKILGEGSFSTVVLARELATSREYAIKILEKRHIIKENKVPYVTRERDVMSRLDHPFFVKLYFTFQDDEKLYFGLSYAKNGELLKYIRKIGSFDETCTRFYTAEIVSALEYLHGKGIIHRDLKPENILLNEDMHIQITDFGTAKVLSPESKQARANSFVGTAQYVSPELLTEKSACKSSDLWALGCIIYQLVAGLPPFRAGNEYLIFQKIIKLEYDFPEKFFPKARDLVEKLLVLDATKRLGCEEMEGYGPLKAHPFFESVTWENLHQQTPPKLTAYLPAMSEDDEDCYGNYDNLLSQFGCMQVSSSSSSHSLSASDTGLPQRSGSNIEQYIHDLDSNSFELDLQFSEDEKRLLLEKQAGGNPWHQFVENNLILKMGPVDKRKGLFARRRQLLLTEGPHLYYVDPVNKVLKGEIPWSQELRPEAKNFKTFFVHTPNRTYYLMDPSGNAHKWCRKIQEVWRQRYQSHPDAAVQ

[5] = test system: PKB Ser473 phosphorylation; settings: literature: Hill et al. 2001; Alessi et al. 1996; cited from earlier work
[6] = test system: PKBα; assay: Subcellular fractionation of HEK 293 cells transfected with PKB constructs, anti-HA immunoblotting; type: cell-based, human; settings: 0.1 mM pervanadate, 10 min, 37° C., serum-starved transfected HEK 293 cells
From the text: In order to characterize and purify the PKB Ser473 kinase, we reasoned that the kinase might be constitutively active at the plasma membrane (PM). To this end, we developed a subcellular fractionation protocol to generate fractions enriched in the PM. To determine the efficacy of the procedure, the fractionation behavior of products of two PKB constructs was examined: hemagglutinin (HA) tagged PKBα (HA-PKBα) and HA-PKBα containing a myristoylation/palmitylation signal (m/p-HA-PKBα).
HEK 293 cells transiently transfected with the PKB constructs were serum starved, stimulated or not with 0.1 mM pervanadate for 10 min at 37° C., and subcellular fractions were generated. […] Protein concentration of the subcellular fractions was determined by the Bradford method (Bio-Rad), using bovine serum albumin as standard. […]
The presence of PKB in each fraction was determined by immunoblotting with an anti-HA antibody (12CA5). In addition, the phosphorylation status of PKB in each of the fractions was assessed by immunoblotting with phospho-specific PKB antibodies after immunoprecipitation with the HA antibody. […]

Row | Compound | PKB phosphorylation on Thr308 and Ser473 [1] | Ser473 kinase activity in plasma membrane fractions [2] | Staurosporine concentration up to which the kinase activity is insensitive [3] | Effect on PDK1 [4] | Sensitivity of insulin-stimulated PKB Ser473 phosphorylation to the inhibitor [5] | Potency as activator of PKB phosphorylation compared with insulin [1] | Translocation of membrane-targeted m/p-HA-PKBα [6] | Translocation of wild type HA-PKBα to the plasma membrane fraction [6]
1 | insulin | induced PKB phosphorylation on both Thr308 and Ser473 | neither stimuli increased Ser473 kinase activity above basal levels |  |  |  |  |  | 
2 | CN[C@@H]1C[C@H]2O[C@@](C)([C@@H]1OC)n1c3ccccc3c3c4c(c5c6ccccc6n2c5c31)C(=O)NC4 [staurosporine] |  |  | > 100 µM | inhibits PDK1 | staurosporine-insensitive; also recorded: not sensitive |  |  | 
3 | pervanadate | induced PKB phosphorylation on both Thr308 and Ser473 | neither stimuli increased Ser473 kinase activity above basal levels |  |  |  | more potent activator of PKB phosphorylation than insulin | no translocation was observed | A portion of PKBα translocated to the PM fraction
